Experiments:
cerebellar cortex = settings: rat, in vivo
Description: (§1) Male (˜200 g) Long Evans rats (Charles River Laboratories, Cambridge, Mass.) were fed isocaloric liquid diets (BioServ, Frenchtown, N.J.) in which ethanol comprised 0% or 37% of the caloric content (9.25% v/v) for 6 weeks (Yeon et al., Hepatology 38:703 (2003)). A chow fed control group was also studied. Rats were monitored daily to ensure equivalent food consumption and maintenance of body weight. Upon sacrifice, the brains were harvested and either immersion fixed in Histochoice fixative (Amresco Corp., Solon, Ohio) for paraffin embedding, or sliced fresh to micro-dissect temporal cortex, hypothalamus, and cerebellum. The fresh tissue blocks were snap frozen in a dry ice-methanol bath and stored at −80° C. for mRNA and protein studies.
(§2) Fixed brains were sectioned in the coronal plane along standardized landmarks and embedded in paraffin. Paraffin-embedded sections (8 μm thick) were stained with hematoxylin and eosin, or immunostained with monoclonal antibodies to 8-hydroxy-deoxyguanosine (8-OHdG) (Oxis Research) or 4-hydroxynonenol (HNE) (Chemicon International, Temecula, Calif.) to detect DNA damage and lipid peroxidation, respectively. Prior to immunostaining, deparaffinized, re-hydrated sections were treated with 0.1 mg/ml saponin in phosphate buffered saline (10 mM sodium phosphate, 0.9% NaCl, pH 7.4; PBS) for 20 minutes at room temperature, followed by 3% hydrogen peroxide in methanol for 10 minutes to quench endogenous peroxidase activity, and then 30 minutes in SuperBlock-TBS (Pierce Chemical Co., Rockford, Ill.) at room temperature to block non-specific binding sites. The sections were incubated overnight at 4° C. with 0.5-1 μg/ml of primary antibody. Immunoreactivity was detected with biotinylated secondary antibody, avidin biotin horseradish peroxidase complex (ABC) reagents, and diaminobenzidine as the chromogen (Vector Laboratories, Burlingame, Calif.) (Lam et al. J. Biol. Chem. 269:20648 (1994)). The tissue sections were counterstained with hematoxylin and examined by light microscopy.

[1] = test system: lipid peroxidation and DNA damage in brain; settings: rat, in vivo
Description: as §1, §2

insulin receptors = settings: pup cerebellar membrane extracts, chronic gestational ethanol exposure relative to control; not dose-dependent
Description: (§6) Fresh frozen tissue (˜100 mg) was homogenized in 5 volumes of NP-40 lysis buffer (50 mM Tris-HCl, pH 7.5, 1% NP-40, 150 mM NaCl, 1 mM EDTA, 2 mM EGTA) containing protease inhibitors (1 mM PMSF, 0.1 mM TPCK, 1 μg/ml aprotinin, 1 μg/ml pepstatin A, 0.5 μg/ml leupeptin, 1 mM NaF, 1 mM Na4P2O7). Protein concentrations were determined using the bicinchoninic acid (BCA) assay (Pierce, Rockford, Ill.). Exploratory studies determined the amounts of protein and concentrations of radiolabeled ligand required to achieve 20% specific binding. Insulin receptor binding assays were performed using 100 μg protein. IGF-I binding assays required 25 μg protein per sample, and IGF-II receptor binding assays were optimized using 10 μg protein. […]
(§7) All reactions were performed in 1.5 ml Eppendorff tubes, and the incubations were performed at 4° C. for 16 hours with gentle platform agitation. […] The samples were counted for 1 minute in an LKB CompuGamma CS Gamma counter. Specific binding was calculated by subtracting fmol of non-specific binding, i.e., amount bound in the presence of cold ligand, from the total fmol bound (absence of unlabeled competitive ligand). The results were analyzed and plotted using the GraphPad Prism 4 software (GraphPad Software, Inc., San Diego, Calif.).

AChE mRNA = settings: chronic ethanol feeding; temporal lobe, hypothalamus, cerebellum
Description: as §1
(§3) Total RNA was isolated from brain tissue using TRIzol reagent (Invitrogen, Carlsbad, Calif.) according to the manufacturer's protocol. RNA concentrations and purity were determined from the absorbances measured at 260 nm and 280 nm. […] Real time quantitative RT-PCR was used to measure mRNA levels of insulin, IGF-I, and IGF-II growth factors, their corresponding receptors, neuronal (Hu), astrocytic (glial fibrillary acidic protein; GFAP), oligodendroglial (myelin-associated glycoprotein-1; MAG-1), microglial (AIF1), and endothelial (endothelin-1; ET-1) cell genes, acetyl cholinesterase (AChE), and choline acetyltransferase (ChAT). […]

ChAT mRNA = settings: chronic ethanol feeding; hypothalamus and cerebellum
Description: as §1, §3

IGF-II receptors = settings: pup cerebellar membrane extracts, chronic gestational ethanol exposure relative to control; not dose-dependent
Description: as §6, §7

[2] = test system: IGF-I receptor tyrosine kinase; settings: cerebellar tissue, ethanol-exposed relative to control pups; normalized to receptor protein; not dose-dependent
Description: (§4) Insulin or IGF-I receptor molecules were immunoprecipitated from individual 100 μg protein samples using rabbit polyclonal antibodies (1 μg/ml) and Protein A sepharose (Amersham-Pharmacia, Arlington Heights, Ill.) (Ausubel et al, (2002) Current Protocols in Molecular Biology. John Wiley & Sons New York). Receptor tyrosine kinase activity was measured in the immune precipitates using a non-isotopic assay (Chemicon International, Temecula, Calif.) according to the manufacturer's protocol with small modifications. Briefly, tyrosine phosphorylation of the biotinylated synthetic peptide substrate captured onto streptavidin-coated wells was detected with horseradish peroxidase conjugated anti-phospho-tyrosine and SuperSignal West Pico chemiluminescent substrate (Pierce Chemical Co., Rockford, Ill.). Luminescence was measured in a TopCount machine (Packard Instrument Co., Meriden, Conn.). […]
(§5) Studies were done to characterize the degree to which ethanol-associated impairments in receptor binding were associated with reductions in insulin and IGF-I receptor tyrosine kinase activities, and insulin and IGF-I receptor protein expression. Receptor protein levels were measured by Western blotting with digital image densitometry.

[3] = test system: insulin receptor tyrosine kinase; settings: cerebellar tissue, ethanol-exposed relative to control pups; normalized to receptor protein; not dose-dependent
Description: as §4, §5

IGF-I receptors = settings: pup cerebellar membrane extracts, chronic gestational ethanol exposure relative to control; not dose-dependent
Description: as §6, §7

[4] = test system: cerebellar membrane cholesterol content; settings: 8% ethanol diet group, pups
Description: Cholesterol content was measured using the Amplex Red assay kit (Molecular Probes, Eugene, Oreg.) according to the manufacturer's protocol. […] Briefly, tissue homogenates were prepared in RIPA buffer as described above. Samples, serially diluted in 1× reaction buffer (provided with the kit), were incubated with 150 μM Amplex Red reagent, 1 U/ml horseradish peroxidase, 1 U/ml cholesterol oxidase, and 0.1 U/ml cholesterol esterase in final reaction volumes of 100 μl. Reactions were incubated at 37° C. for 30 minutes and fluorescence was measured in a Fluorocount microplate reader (Packard Instrument Co., Meriden, Conn.) (Ex 560 nm/Em 590 nm). A standard curve was simultaneously generated using a cholesterol standard provided with the kit. The levels of cholesterol were normalized to protein concentration in the samples.

## CCO [ethanol]
Cerebellar cortex
  structural abnormalities in the cerebellar cortex: loss of Purkinje cells and reduced densities of cells within the internal granule layer
[1]
  8-OHdG immunoreactivity (DNA damage): only detected in scattered cells
  HNE immunoreactivity (lipid peroxidation): conspicuously increased cellular labeling
Insulin receptors
  impairment of insulin receptor binding: ~80%
AChE mRNA
  expression of AChE: did not significantly alter
ChAT mRNA
  ChAT mRNA expression: significantly reduced
IGF-II receptors
  impairment of IGF-II receptor binding: ~50%
[2]
  IGF-I receptor tyrosine kinase activity: significantly reduced
[3]
  insulin receptor tyrosine kinase activity: significantly reduced
IGF-I receptors
  impairment of IGF-I receptor binding: ~80%
[4]
  reduction of cerebellar membrane cholesterol content relative to control: ~50%

From patent publication US9308198B2, “Treatment, prevention, and reversal of alcohol-induced brain disease” (priority 2006, dated 2016)
